# Source: patent US6225321A (priority 1997, dated 2001)
# Assay: Half-life / conversion of dinalbuphine sebacoyl ester in human blood
# Format: in vitro ADME
# Conditions: for Elimination half-life: n = 3, mean ± S.E.
# Experimental: IV. For Human Experiments
# (a) Dinalbuphine sebacoyl ester was dissolved in acetonitrile, the concentration was 10 mg/ml.
# (b) 250 ml of whole blood collected from rats given dinalbuphine sebacoyl ester, and anticoagulant was added.
smiles,measurement,setting,value
O=C(CCCCCCCCC(=O)Oc1ccc2c3c1O[C@H]1[C@@H](O)CC[C@@]4(O)[C@@H](C2)N(CC2CCC2)CC[C@]314)Oc1ccc2c3c1O[C@H]1[C@@H](O)CC[C@@]4(O)[C@@H](C2)N(CC2CCC2)CC[C@]314 [sebacoyl dinalbuphine ester],Elimination half-life,human plasma,9.0 ± 0.4 min
same,Elimination half-life,human red blood cell,7.7 ± 0.4 min
same,Elimination half-life,human whole blood,8.8 ± 0.4 min
same,converted time of 90% into Nalbuphine,humans,30 min
same,half life,"humans, HPLC",9.0 min
